Literature values as cited in US20180214382A1, “EDIBLE COMPOSITION COMPRISING A POLYSACCHARIDE AND A LIPID” (PERORA GMBH, priority 2015, published 2018).

Settings: rat feeding study; independent from intake

CCCCCCCCCCCCCCCCCC(=O)OCC(COC(=O)CCCCCCCCCCCCCCCCC)OC(=O)CCCCCCCCCCCCCCCCC [tristearin]
true digestibility of stearic acid from tristearin: 0.15 g/g
